Measurements published in patent US7304174B2, “CaSR antagonist” (Japan Tobacco Inc., priority 2003, dated 2007).

Biological target: T1, human calcium receptor (Homo sapiens, UniProt P41180)
T1 construct: expressed in transfected cells; host or cells: cell strain derived from rat adrenal, co-transformed with luciferase cDNA
T1 sequence (P41180 20-1078): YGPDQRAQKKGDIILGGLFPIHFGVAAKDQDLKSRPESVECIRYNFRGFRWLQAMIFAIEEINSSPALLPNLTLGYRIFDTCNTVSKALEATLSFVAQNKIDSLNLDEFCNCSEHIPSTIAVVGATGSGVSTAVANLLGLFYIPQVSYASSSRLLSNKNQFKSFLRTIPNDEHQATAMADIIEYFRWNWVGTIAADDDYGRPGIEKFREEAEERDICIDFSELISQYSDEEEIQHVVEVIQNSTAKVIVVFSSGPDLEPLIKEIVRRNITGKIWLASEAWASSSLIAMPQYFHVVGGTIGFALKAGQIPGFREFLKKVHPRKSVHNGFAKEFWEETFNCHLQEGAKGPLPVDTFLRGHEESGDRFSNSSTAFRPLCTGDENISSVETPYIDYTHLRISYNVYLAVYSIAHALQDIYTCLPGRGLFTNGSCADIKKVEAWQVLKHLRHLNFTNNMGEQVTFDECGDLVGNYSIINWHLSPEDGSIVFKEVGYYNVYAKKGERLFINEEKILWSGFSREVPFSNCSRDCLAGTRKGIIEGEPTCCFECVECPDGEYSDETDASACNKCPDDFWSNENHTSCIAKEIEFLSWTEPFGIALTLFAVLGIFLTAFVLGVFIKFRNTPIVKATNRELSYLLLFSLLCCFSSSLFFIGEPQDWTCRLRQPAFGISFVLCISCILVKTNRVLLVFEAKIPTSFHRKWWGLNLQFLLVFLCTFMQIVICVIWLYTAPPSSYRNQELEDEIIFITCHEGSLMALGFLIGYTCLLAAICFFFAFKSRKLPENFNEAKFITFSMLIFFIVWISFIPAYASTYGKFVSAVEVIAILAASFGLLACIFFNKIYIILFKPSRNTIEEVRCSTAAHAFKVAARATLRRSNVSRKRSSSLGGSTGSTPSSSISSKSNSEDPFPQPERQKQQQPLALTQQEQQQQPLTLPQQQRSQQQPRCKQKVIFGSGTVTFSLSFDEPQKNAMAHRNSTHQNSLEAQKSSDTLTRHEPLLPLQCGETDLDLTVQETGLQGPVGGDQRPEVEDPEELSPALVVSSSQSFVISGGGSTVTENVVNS
Experiment: Evaluation of antagonistic action on calcium receptor using reporter gene (luciferase)
Format: cell-based
Details: transformed rat adrenal derived cells, 5 mM calcium chloride, culture 4 hrs, luciferase activity; read-out: Reporter gene assay (IC50, concentration showing 50% inhibitory rate)
Outline: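 Rat adrenal-derived cells transfected with luciferase and human calcium receptor cDNA, in F12 with 0.5% dialyzed horse serum and 0.25% dialyzed fetal bovine serum. Luciferase luminescence gave % inhibition vs control and blank; IC50 at 50% inhibition.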

`C[C@@H](OC[C@H](O)CNC(C)(C)Cc1ccc2ccccc2c1)c1ccccc1-c1ccc(C(=O)O)c(-c2ccccc2)c1` [Example 1-41, 2-[1-[(2R)-3-[[1-(naphthalen-2-yl)-2-methylpropan-2-yl]amino]-2-hydroxypropoxy]ethyl]-m-terphenyl-4′-carboxylic acid] and `C[C@@H](OC[C@H](O)CNC(C)(C)Cc1ccc2ccccc2c1)c1ccccc1-c1ccc(C(=O)O)c(Cl)c1` [Example 1-68, 3-chloro-2′-[1-[(2R)-3-[[1-(naphthalen-2-yl)-2-methylpropan-2-yl]amino]-2-hydroxypropoxy]ethyl]biphenyl-4-carboxylic acid] are the same in IC50: 3 nM for the first, 3 nM for the second.

Going from `Cc1ccc(CC(C)(C)NC[C@@H](O)COC(C)c2ccccc2Oc2ccc(C(=O)O)cc2)cc1F` (stereo partly drawn) [Example 2-7, 4-[2-[1-[(2R)-3-[[1-(3-fluoro-4-methylphenyl)-2-methylpropan-2-yl]amino]-2-hydroxypropoxy]ethyl]phenoxy]benzoic acid] to `C[C@@H](OC[C@H](O)CNC(C)(C)Cc1ccc(Cl)c(F)c1)c1ccccc1Oc1ccc(C(=O)O)cc1` [Example 2-35, 4-[2-[1-[(2R)-3-[[1-(4-chloro-3-fluorophenyl)-2-methylpropan-2-yl]amino]-2-hydroxypropoxy]ethyl]phenoxy]benzoic acid], the IC50 falls from 17 nM to 11 nM (1.5-fold). The second is the more potent here.

Compared with `CCCc1cc(-c2ccccc2[C@@H](C)OC[C@H](O)CNC(C)(C)Cc2ccc(C)c(F)c2)ccc1C(=O)O` [Example 1-38, 2′-[1-[(2R)-3-[[1-(3-fluoro-4-methylphenyl)-2-methylpropan-2-yl]amino]-2-hydroxypropoxy]ethyl]-3-propylbiphenyl-4-carboxylic acid], `Cc1ccc(CC(C)(C)NC[C@@H](O)CO[C@H](C)c2ccccc2-c2ccc(C(=O)O)c(C)c2)cc1F` [Example 1-108] is 7-fold higher in IC50: 2 nM for the first, 14 nM for the second.

First: CC(OC[C@H](O)CNC(C)(C)Cc1ccc2ccccc2c1)c1ccccc1-c1ccc(C(=O)O)c(C(F)(F)F)c1 (stereo partly drawn) [Example 1-28, 2′-[1-[(2R)-3-[[1-(naphthalen-2-yl)-2-methylpropan-2-yl]amino]-2-hydroxypropoxy]ethyl]-3-(trifluoromethyl)biphenyl-4-carboxylic acid]
Second: Cc1c(C(=O)O)ccc(-c2ccccc2[C@@H](C)OC[C@H](O)CNC(C)(C)Cc2ccc3ccccc3c2)c1C [Example 1-37, 2,3-dimethyl-2′-[1-[(2R)-3-[[1-(naphthalen-2-yl)-2-methylpropan-2-yl]amino]-2-hydroxypropoxy]ethyl]biphenyl-4-carboxylic acid]
The IC50 of the first is 2.3-fold higher: 7 nM for the first, 3 nM for the second. The second is the more potent here.

`Cc1cc(-c2ccccc2[C@@H](C)OC[C@H](O)CNC(C)(C)Cc2cc(C(F)(F)F)cc(C(F)(F)F)c2)ccc1C(=O)O` [Example 1-94, 2′-[1-[(2R)-3-[[1-(3,5-ditrifluoromethylphenyl)-2-methylpropan-2-yl]amino]-2-hydroxypropoxy]ethyl]-3-methylbiphenyl-4-carboxylic acid] and `Cc1cc(-c2ccccc2[C@@H](C)OC[C@H](O)CNC(C)(C)Cc2ccc(C(F)(F)F)c(F)c2)ccc1C(=O)O` [Example 1-92, 2′-[1-[(2R)-3-[[1-(3-fluoro-4-trifluoromethylphenyl)-2-methylpropan-2-yl]amino]-2-hydroxypropoxy]ethyl]-3-methylbiphenyl-4-carboxylic acid] are within 1.5-fold of each other in IC50: 28 nM for the first, 22 nM for the second.

Going from `Cc1cc(-c2ccccc2[C@@H](C)OC[C@H](O)CNC(C)(C)Cc2cc(F)c(Cl)cc2F)ccc1C(=O)O` [Example 1-25, 2′-[1-[(2R)-3-[[1-(4-chloro-2,5-difluorophenyl)-2-methylpropan-2-yl]amino]-2-hydroxypropoxy]ethyl]-3-methylbiphenyl-4-carboxylic acid] to `Cc1cc(F)c(CC(C)(C)NC[C@@H](O)CO[C@H](C)c2ccccc2-c2ccc(C(=O)O)c(C)c2)cc1Cl` [Example 1-90, 2′-[1-[(2R)-3-[[1-(5-chloro-2-fluoro-4-methylphenyl)-2-methylpropan-2-yl]amino]-2-hydroxypropoxy]ethyl]-3-methylbiphenyl-4-carboxylic acid], the IC50 rises from 19 nM to 271 nM (14-fold). The first is the more potent here.

Compared with `Cc1cc(-c2ccccc2[C@@H](C)OC[C@H](O)CNC(C)(C)Cc2ccc(C)c(F)c2F)ccc1C(=O)O` [Example 1-5, 2′-[1-[(2R)-3-[[1-(2,3-difluoro-4-methylphenyl)-2-methylpropan-2-yl]amino]-2-hydroxypropoxy]ethyl]-3-methylbiphenyl-4-carboxylic acid], `Cc1cc(-c2ccccc2[C@@H](C)OC[C@H](O)CNC(C)(C)Cc2ccc(Cl)cc2F)ccc1C(=O)O` [Example 1-109] is 5-fold higher in IC50: 3 nM for the first, 15 nM for the second.

Compared with `CCC(C)c1cc(-c2ccccc2[C@@H](C)OC[C@H](O)CNC(C)(C)Cc2ccc(C)c(F)c2)ccc1C(=O)O` (stereo partly drawn) [Example 1-53, 2′-[1-[(2R)-3-[[1-(3-fluoro-4-methylphenyl)-2-methylpropan-2-yl]amino]-2-hydroxypropoxy]ethyl]-3-(1-methylpropyl)biphenyl-4-carboxylic acid], `Cc1ccc(CC(C)(C)NC[C@@H](O)CO[C@H](C)c2ccccc2-c2ccc(C(=O)O)c(O)c2)cc1F` [Example 1-50, 2′-[1-[(2R)-3-[[1-(3-fluoro-4-methylphenyl)-2-methylpropan-2-yl]amino]-2-hydroxypropoxy]ethyl]-3-hydroxybiphenyl-4-carboxylic acid] is 7.5-fold lower in IC50: 15 nM for the first, 2 nM for the second.

First: Cc1ccc(CC(C)(C)NC[C@@H](O)CO[C@H](C)c2ccccc2Oc2ccc(C(=O)O)c(C(F)(F)F)c2)cc1F [Example 2-32, 4-[2-[1-[(2R)-3-[[1-(3-fluoro-4-methylphenyl)-2-methylpropan-2-yl]amino]-2-hydroxypropoxy]ethyl]phenoxy]-2-trifluoromethylbenzoic acid]
Second: Cc1ccc(CC(C)(C)NC[C@@H](O)COC(C)c2ccccc2Oc2cccc(C(=O)O)c2)cc1F (stereo partly drawn) [Example 2-8, 3-[2-[1-[(2R)-3-[[1-(3-fluoro-4-methylphenyl)-2-methylpropan-2-yl]amino]-2-hydroxypropoxy]ethyl]phenoxy]benzoic acid]
The IC50 of the first is 3.9-fold lower: 14 nM for the first, 54 nM for the second. The first is the more potent here.

Going from `Cc1ccc(CC(C)(C)NC[C@@H](O)CO[C@H](C)c2ccccc2OCc2ccc(C(=O)O)cc2)cc1F` [Example 2-24, 4-[[2-[1-[(2R)-3-[[1-(3-fluoro-4-methylphenyl)-2-methylpropan-2-yl]amino]-2-hydroxypropoxy]ethyl]phenoxy]methyl]benzoic acid] to `Cc1cc(C(=O)O)ccc1Oc1ccccc1C(C)OC[C@H](O)CNC(C)(C)Cc1ccc(Cl)c(F)c1` (stereo partly drawn) [Example 2-36, 4-[2-[1-[(2R)-3-[[1-(4-chloro-3-fluorophenyl)-2-methylpropan-2-yl]amino]-2-hydroxypropoxy]ethyl]phenoxy]-5-methylbenzoic acid], the IC50 falls from 57 nM to 13 nM (4.4-fold). The second is the more potent here.

Going from `Cc1ccc(CC(C)(C)NC[C@@H](O)CO[C@H](C)c2ccccc2-c2ccc(C(=O)O)c(OC(F)(F)F)c2)cc1F` [Example 1-103, 2′-[1-[(2R)-3-[[1-(3-fluoro-4-methylphenyl)-2-methylpropan-2-yl]amino]-2-hydroxypropoxy]ethyl]-3-(trifluoromethoxy)biphenyl-4-carboxylic acid] to `Cc1cc(-c2ccccc2[C@@H](C)OC[C@H](O)CNC(C)(C)Cc2ccc(Cl)c(F)c2)ccc1C(=O)O` [Example 1-105], the IC50 rises from 3 nM to 9 nM (3-fold).

First: Cc1cc(-c2ccccc2[C@@H](C)OC[C@H](O)CNC(C)(C)Cc2ccc(Cl)c(Cl)c2)ccc1C(=O)O [Example 1-61, 2′-[1-[(2R)-3-[[1-(3,4-dichlorophenyl)-2-methylpropan-2-yl]amino]-2-hydroxypropoxy]ethyl]-3-methylbiphenyl-4-carboxylic acid]
Second: Cc1ccc(CC(C)(C)NC[C@@H](O)CO[C@H](C)c2ccccc2-c2ccc(C(=O)O)c(C)c2C)cc1F [Example 1-42, 2′-[1-[(2R)-3-[[1-(3-fluoro-4-methylphenyl)-2-methylpropan-2-yl]amino]-2-hydroxypropoxy]ethyl]-2,3-dimethylbiphenyl-4-carboxylic acid]
The IC50 of the first is 6-fold lower: 4 nM for the first, 24 nM for the second.

`Cc1cc(C(=O)O)cc(-c2ccccc2[C@@H](C)OC[C@H](O)CNC(C)(C)Cc2ccc(C)c(F)c2)c1` [Example 1-17, 2′-[1-[(2R)-3-[[1-(3-fluoro-4-methylphenyl)-2-methylpropan-2-yl]amino]-2-hydroxypropoxy]ethyl]-3-methylbiphenyl-5-carboxylic acid] and `Cc1ccc(CC(C)(C)NC[C@@H](O)CO[C@H](C)c2ccccc2-c2c(C)cc(C(=O)O)cc2C)cc1F` [Example 1-76] are within 1.5-fold of each other in IC50: 15 nM for the first, 22 nM for the second.
